Broadly, the IC50 is the concentration at which inhibition is half-maximal. A high value points to weaker potency.

Structures are written as SMILES. Where only a bound is given, the exact number is not on record here.

Sequence of human DGAT2 (hDGAT2) (Q96PD7 whole entry): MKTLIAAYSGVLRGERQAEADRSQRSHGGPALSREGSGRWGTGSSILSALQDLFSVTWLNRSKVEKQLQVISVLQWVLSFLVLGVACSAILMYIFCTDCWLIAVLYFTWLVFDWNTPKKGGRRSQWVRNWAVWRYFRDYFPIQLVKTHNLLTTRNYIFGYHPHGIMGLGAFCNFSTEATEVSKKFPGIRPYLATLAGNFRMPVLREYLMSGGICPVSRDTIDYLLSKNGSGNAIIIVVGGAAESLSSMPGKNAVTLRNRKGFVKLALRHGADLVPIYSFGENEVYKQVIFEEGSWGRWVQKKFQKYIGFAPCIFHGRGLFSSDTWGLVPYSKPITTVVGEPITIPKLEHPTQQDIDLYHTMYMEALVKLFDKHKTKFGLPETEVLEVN

The target of this experiment is human DGAT2 (hDGAT2) (Homo sapiens (Human), UniProt Q96PD7). Kind of experiment: DGAT2 Enzymatic Activity Assay. The experiment is classed as biochemical. Conditions: hDGAT2 Sf-9 membrane prep; 13C18-triolein product by LC/MS/MS; 25 μM diolein, 5 μM 13C oleoyl-CoA. On the procedure:
Sf-9 insect cells were maintained in Grace's insect cell culture medium with 10% heated-inactivated fetal bovine serum, 1% Pluronic F-68 and 0.14 μg/ml Kanamycine sulfate at 27° C. in a shaker incubator. After infection with untagged baculovirus expressing human DGAT2 (hDGAT2) at multiplicity of infection (MOI) 3 for 48 hours, cells were harvested. Cell pellets were suspended in buffer containing 10 mM Tris-HCl pH 7.5, 1 mM EDTA, 250 mM sucrose and Complete Protease Inhibitor Cocktail (Sigma Aldrich), and sonicated on ice. Cell debris were removed by centrifugation at 2000×g for 15 minutes. Membrane fractions were isolated by ultracentrifugation (100,000×g), resuspended in the same buffer, and frozen (−80° C.) for later use. The protein concentration was determined with the Pierce™ BCA Protein Assay Kit (Thermo Fisher Scientific).
LC/MS/MS analyses were performed using Thermal Fisher's LX4-TSQ Vantage system. This system consists of an Agilent binary high-performance liquid chromatography (HPLC) pump and a TSQ Vantage triple quadrupole MS/MS instrument. For each sample, 2 μL samples from the top organic layer of in-plate liquid-liquid extraction were injected onto a Thermo Betabasic C4 column (2.1 mm×20 mm, 5 μm particle size). The samples were then eluted using the following conditions; mobile phase: Isopropanol: acetonitrile/10 mM ammonium formate=50/35/15 (v/v/v), flow rate: 0.8 mL/min, temperature: 25° C. Data was acquired in positive mode using a heated electrospray ionization (HESI) interface. […] The peak area was integrated by Xcalibur Quan software. The ratio between the ^13C18triolein generated in the reaction and spiked in internal standard ^13C21-triolein was used to generate percentage inhibition and IC50 values. Compound percentage inhibition was calculated by the following formula: Inhibition %=1−[(compound response−low control)/(high control−low control)]×100%.
DGAT2 activity was determined by measuring the amount of enzymatic product ^13C18-triolein (^13C-1,2,3-Tri(cis-9-octadecenoyl)glycerol) using the membrane prep mentioned above. The assay was carried out in ABgene 384-well assay plates in a final volume of 25 μL at rt.
As for `CC(C)n1nc(-c2cc(OC(F)F)ncc2F)c2c1C[C@H](C(=O)N[C@@]1(C)CCS(=O)(=O)C1)CC2` [Example 41, (R)-3-(2-(difluoromethoxy)-5-fluoropyridin-4-yl)-1-isopropyl-N-((S)-3-methyl-1,1-dioxidotetrahydrothiophen-3-yl)-4,5,6,7-tetrahydro-1H-indazole-6-carboxamide], half-maximal inhibition (IC50) was put at 139 nM.
Under `C[C@]1(NC(=O)[C@@H]2CCc3c(-c4cccc(OC(F)F)c4)nn(C(=O)C4CCOCC4)c3C2)CCS(=O)(=O)C1` [Example 75, (R)-3-(3-(difluoromethoxy)phenyl)-N-((S)-3-methyl-1,1-dioxidotetrahydrothiophen-3-yl)-1-(tetrahydro-2H-pyran-4-carbonyl)-4,5,6,7-tetrahydro-1H-indazole-6-carboxamide] stands over 10000 nM.
Under `CC(C)n1nc(-c2cncc(OC(F)(F)C(F)F)c2)c2c1C[C@H](C(=O)N[C@@]1(C)CCS(=O)(=O)C1)CC2` [Example 105, (R)-1-isopropyl-N-((S)-3-methyl-1,1-dioxidotetrahydrothiophen-3-yl)-3-(5-(1,1,2,2-tetrafluoroethoxy)pyridin-3-yl)-4,5,6,7-tetrahydro-1H-indazole-6-carboxamide] stands 118 nM; under `CC1(NC(=O)[C@@H]2CCc3c(-c4cccc(OC(F)F)c4)nn(-c4ccc(F)cn4)c3C2)CC(F)(F)C1` [Example 7, (R)-N-(3,3-difluoro-1-methylcyclobutyl)-3-(3-(difluoromethoxy)phenyl)-1-(5-fluoropyridin-2-yl)-4,5,6,7-tetrahydro-1H-indazole-6-carboxamide], 12 nM.
As for `CC(C)n1nc(-c2cc(C#N)ccc2F)c2c1C[C@H](C(=O)NC1(C)CS(=O)(=O)C1)CC2` [Example 101, (R)-3-(5-cyano-2-fluorophenyl)-1-isopropyl-N-(3-methyl-1,1-dioxidothietan-3-yl)-4,5,6,7-tetrahydro-1H-indazole-6-carboxamide], the half-inhibitory concentration (IC50) was over 10000 nM.
As to `CC(C(F)F)n1nc(-c2cc(OC(F)F)ccc2F)c2c1C[C@H](C(=O)NC1(C)CCS(=O)(=O)CC1)CC2` (single isomer, unassigned) [Example 49b], the IC50 worked out at 0.6 nM.
Under `CCOc1ccc(F)c(-c2nn(C(C)C)c3c2CC[C@@H](C(=O)NC2(C)CCS(=O)(=O)CC2)C3)c1` [Example 54, (R)-3-(5-ethoxy-2-fluorophenyl)-1-isopropyl-N-(4-methyl-1,1-dioxidotetrahydro-2H-thiopyran-4-yl)-4,5,6,7-tetrahydro-1H-indazole-6-carboxamide] stands 1.8 nM.
In the case of `CCOc1cc(-c2nn(C(C)C)c3c2CC[C@@H](C(=O)NC2(C)CS(=O)(=O)C2)C3)c(F)cn1` [Example 34, (R)-3-(2-ethoxy-5-fluoropyridin-4-yl)-1-isopropyl-N-(3-methyl-1,1-dioxidothietan-3-yl)-4,5,6,7-tetrahydro-1H-indazole-6-carboxamide], 117 nM corresponded to half-maximal inhibition (IC50).
Under `C[C@]1(NC(=O)[C@@H]2CCc3c(-c4cccc(OC(F)F)c4)nn(Cc4ccccc4)c3C2)CCS(=O)(=O)C1` [Example 77, (R)-1-benzyl-3-(3-(difluoromethoxy)phenyl)-N-((S)-3-methyl-1,1-dioxidotetrahydrothiophen-3-yl)-4,5,6,7-tetrahydro-1H-indazole-6-carboxamide] stands 577 nM; under `[2H]C([2H])([2H])C([2H])([2H])Oc1cc(-c2nn(C(C)C)c3c2CC[C@@H](C(=O)NC2(C)CCS(=O)(=O)CC2)C3)c(F)cn1` [Example 50, (R)-3-(2-(ethoxy-d5)-5-fluoropyridin-4-yl)-1-isopropyl-N-(4-methyl-1,1-dioxidotetrahydro-2H-thiopyran-4-yl)-4,5,6,7-tetrahydro-1H-indazole-6-carboxamide], 51 nM; under `C[C@]1(NC(=O)[C@@H]2CCc3c(-c4cccc(OC(F)F)c4)nn(C(=O)C4CC4)c3C2)CCS(=O)(=O)C1` [Example 74, (R)-1-(cyclopropanecarbonyl)-3-(3-(difluoromethoxy)phenyl)-N-((S)-3-methyl-1,1-dioxidotetrahydrothiophen-3-yl)-4,5,6,7-tetrahydro-1H-indazole-6-carboxamide], 2910 nM.
Consider `Cc1nc2c(-c3nn(C(C)C)c4c3CC[C@@H](C(=O)NC3(C)CS(=O)(=O)C3)C4)cccc2o1` [Example 93, (R)-1-isopropyl-N-(3-methyl-1,1-dioxidothietan-3-yl)-3-(2-methylbenzo[d]oxazol-4-yl)-4,5,6,7-tetrahydro-1H-indazole-6-carboxamide], for which the IC50 was over 10000 nM.
Regarding `CC(C(F)F)n1nc(-c2cc(OC(F)F)ccc2F)c2c1C[C@H](C(=O)NC1(C)CS(=O)(=O)C1)CC2` (single isomer, unassigned) [Example 48a], the IC50 was determined as 90.3 nM.
The compound `C[C@]1(NC(=O)[C@@H]2CCc3c(-c4cccc(OC(F)F)c4)nn(C(=O)c4ccccc4)c3C2)CCS(=O)(=O)C1` [Example 76, (R)-1-benzoyl-3-(3-(difluoromethoxy)phenyl)-N-((S)-3-methyl-1,1-dioxidotetrahydrothiophen-3-yl)-4,5,6,7-tetrahydro-1H-indazole-6-carboxamide] had an IC50 of 2740 nM.
In turn, `CC(C)Oc1cc(-c2nn(C(C)C)c3c2CC[C@@H](C(=O)NC2(C)CCS(=O)(=O)CC2)C3)c(F)cn1` [Example 38, (R)-3-(5-fluoro-2-isopropoxypyridin-4-yl)-1-isopropyl-N-(4-methyl-1,1-dioxidotetrahydro-2H-thiopyran-4-yl)-4,5,6,7-tetrahydro-1H-indazole-6-carboxamide] returned an IC50 of 74.3 nM.
Regarding `CC(n1nc(-c2cc(OCC(F)(F)F)ncc2F)c2c1C[C@H](C(=O)NC1(C)CCS(=O)(=O)CC1)CC2)C(C)(C)O` (single isomer, unassigned) [Example 107b], the IC50 was found to be 5.4 nM.
For `CC(C)N1CCC(NC(=O)[C@@H]2CCc3c(-c4cc(OC(F)F)ccc4F)nn(C(C)C)c3C2)C1=O` (stereo partly drawn) [Example 64, (6R)-3-(5-(difluoromethoxy)-2-fluorophenyl)-1-isopropyl-N-(1-isopropyl-2-oxopyrrolidin-3-yl)-4,5,6,7-tetrahydro-1H-indazole-6-carboxamide], the IC50 was determined as 622 nM.
With `CC(C)n1nc(-c2cccc(OC(F)F)c2)c2c1C[C@H](C(=O)N[C@@]1(C)CCS(=O)(=O)C1)CC2` [Example 25, (R)-3-(3-(difluoromethoxy)phenyl)-1-isopropyl-N-((S)-3-methyl-1,1-dioxidotetrahydrothiophen-3-yl)-4,5,6,7-tetrahydro-1H-indazole-6-carboxamide], the half-maximal inhibitory concentration (IC50) was determined as 59.8 nM.
Under `CC(C)n1nc(-c2cccc(C3CC3)c2)c2c1C[C@H](C(=O)NC1(C)CS(=O)(=O)C1)CO2` [Example 125, (S)-3-(3-cyclopropylphenyl)-1-isopropyl-N-(3-methyl-1,1-dioxidothietan-3-yl)-1,5,6,7-tetrahydropyrano[3,2-c]pyrazole-6-carboxamide] stands 22.2 nM.
Under `CC(C)n1nc(-c2cccc(OC(F)(F)F)c2)c2c1C[C@H](C(=O)NC1(C)CCS(=O)(=O)CC1)CC2` [Example 55, (R)-1-isopropyl-N-(4-methyl-1,1-dioxidotetrahydro-2H-thiopyran-4-yl)-3-(3-(trifluoromethoxy)phenyl)-4,5,6,7-tetrahydro-1H-indazole-6-carboxamide] stands 86.6 nM; under `CC(=O)n1nc(-c2cccc(OC(F)F)c2)c2c1C[C@H](C(=O)N[C@@]1(C)CCS(=O)(=O)C1)CC2` [Example 73, (R)-1-acetyl-3-(3-(difluoromethoxy)phenyl)-N-((S)-3-methyl-1,1-dioxidotetrahydrothiophen-3-yl)-4,5,6,7-tetrahydro-1H-indazole-6-carboxamide], over 10000 nM.
For the compound `CC(C)n1nc(-c2cccc(C3(C#N)CC3)c2)c2c1C[C@H](C(=O)NC1(C)CS(=O)(=O)C1)CC2` [Example 91, (R)-3-(3-(1-cyanocyclopropyl)phenyl)-1-isopropyl-N-(3-methyl-1,1-dioxidothietan-3-yl)-4,5,6,7-tetrahydro-1H-indazole-6-carboxamide], the concentration for half-maximal inhibition (IC50) is over 10000 nM.
Under `Cc1ncc(OC(F)F)cc1-c1nn(C(C)C)c2c1CC[C@@H](C(=O)NC1(C)CS(=O)(=O)C1)C2` [Example 86, (R)-3-(5-(difluoromethoxy)-2-methylpyridin-3-yl)-1-isopropyl-N-(3-methyl-1,1-dioxidothietan-3-yl)-4,5,6,7-tetrahydro-1H-indazole-6-carboxamide] stands 170 nM; under `O=C(NC1(CO)CCC(F)(F)C1)[C@@H]1CCc2c(-c3cccc(OC(F)F)c3)nn(-c3ccc(F)cn3)c2C1` (single isomer, unassigned) [Example 8a], 5 nM.

(Values after US20240140938A1, “PREPARATION OF TETRAHYDROINDAZOLE DERIVATIVES AS NOVEL DIACYLGLYCERIDE O-ACYLTRANSFERASE 2 INHIBITORS” (MERCK SHARP & DOHME LLC, priority 2020, published 2024).)
